According to patent publication US20210071138A1, “GAMETOGENESIS” (United Kingdom Research and Innovation, priority 2017, published 2021):

Columns and labels:
PRC1 = target: T1, PRC1 (Mus musculus, UniProt Q9CQJ4); experiment: Western blot of H2Aub in mESCs cultured with PRC1 inhibitor; type: cell-based; conditions: 50 μM PRT4165, after 6h of culture, vs DMSO control (FIG. 15b)
T1 construct: endogenous in cells; host or cells: J1 (wild type) and Dnmt-TKO mouse embryonic stem cells
T1 sequence (Q9CQJ4 1-336): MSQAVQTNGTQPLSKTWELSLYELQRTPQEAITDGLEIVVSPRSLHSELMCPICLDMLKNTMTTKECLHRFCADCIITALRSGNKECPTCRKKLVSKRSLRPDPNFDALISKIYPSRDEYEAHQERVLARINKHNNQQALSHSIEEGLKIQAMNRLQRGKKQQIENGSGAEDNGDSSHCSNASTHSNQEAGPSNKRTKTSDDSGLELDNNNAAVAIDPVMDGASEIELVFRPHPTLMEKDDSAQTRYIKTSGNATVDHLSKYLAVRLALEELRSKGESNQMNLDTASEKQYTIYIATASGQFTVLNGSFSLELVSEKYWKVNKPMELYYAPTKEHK
Method: (§1) J1 (wild type), Dnmt-TKO^23 and Tet1-KO Dnmt-TKO mESCs were cultured in FCS/LIF medium without feeders on 0.1% gelatin. FCS/LIF medium consists of GMEM (Gibco) supplemented with 10% FCS, 0.1 mM MEM nonessential amino acids, 2 mM 1-glutamine, 1 mM sodium pyruvate, 0.1 mM 2-mercaptoethanol and mouse LIF (ESGRO, Millipore). For inhibitor experiments, mESCs were plated at a density of 1.5×10^4/cm^2 and left overnight. The next morning medium was exchanged for FCS/LIF medium containing either 50 μM PRC1 inhibitor PRT4165 (Ismail et al., 2013) or DMSO control and cells pelleted at the indicated time for analysis.
mESCs were lysed by sonication in RIPA buffer (150 mM sodium chloride, 1.0% Triton X-100, 0.5% sodium deoxychlorate, 0.1% sodium dodecylsulfate, 50 mM Tris pH 8.0) and protease-inhibitor cocktail (Roche, 11 697 498 001). Cell debris were removed by centrifugation at 14000 g 5 min 4° C. Protein was quantified using the BCA protein assay (Thermo, 23227). 2 μg (for H2A and H2Aub) or 20 μg (for Tet1) of each protein extract was loaded onto an 15% or 8% SDS polyacrylamide gel and transferred to a PVDF membrane after electrophoresis. Membranes were blocked with 5% BSA for 1 hour and then incubated overnight at 4° C. with primary antibodies at the following dilutions: anti-H2A antibody (Abcam, 18255) 1:2000; anti-ubiquityl H2A antibody (Cell Signalling 8240) 1:2000; anti-Tet1 antibody [N1] […]

[1] = tested on: germline reprogramming responsive (GRR) genes; experiment: RNA-Seq differential expression of GRR genes in mESCs; type: cell-based, mouse
Method: as §1, with “analysis. […]” for “analysis.”
For study of Tet1-KO and Tet1-WT PGCs, Illumina and Smart-seq adapters from the sequencing reads were first trimmed using Trimmomatic. […] RNA-Seq reads were aligned to the mouse genome (mm9, NCBI build 37) with Bowtie (version 0.12.8) and Tophat (version 2.0.2) with options -N 2 --b2-very-sensitive --b2-L 25. […] Read counts per annotated gene were computed using HTSeq (version 0.5.3p9) and expression level of each gene was quantified by computing the number of fragments detected per kilobase per million of reads (FPKM) using custom R script. […] For determining gene expression levels in wild type and Dnmt1-conditional knockout and matched wild type E10.5 PGCs, raw RNA-Seq reads were downloaded from GSE74938^24 and processed as above. […]

SMILES: O=C1C(=Cc2cccnc2)C(=O)c2ccccc21 [PRT4165]
- inhibition of PRC1-mediated H2A ubiquitination (PRC1): significant inhibition
- number of GRR genes activated (of 45) upon dual inhibition of 5mC/PRC1 repression ([1]; Dnmt-TKO mESCs + 6h PRT4165 (50 μM) vs wild type + 6h DMSO (FIG. 4d, 15c)): 33 GRR genes
- number of GRR genes activated (of 45) upon sole inhibition of PRC1 repression ([1]; wild type mESCs + 6h PRT4165 (50 μM) vs wild type + 6h DMSO (FIG. 4d, 15c)): 10 genes
